In the Kinase Knowledgebase extract (Sharma et al. 2016):

What follows are molecules tested against EGFR (human) (UniProt P00533).
Sequence of EGFR (human) (P00533 whole entry, looked up): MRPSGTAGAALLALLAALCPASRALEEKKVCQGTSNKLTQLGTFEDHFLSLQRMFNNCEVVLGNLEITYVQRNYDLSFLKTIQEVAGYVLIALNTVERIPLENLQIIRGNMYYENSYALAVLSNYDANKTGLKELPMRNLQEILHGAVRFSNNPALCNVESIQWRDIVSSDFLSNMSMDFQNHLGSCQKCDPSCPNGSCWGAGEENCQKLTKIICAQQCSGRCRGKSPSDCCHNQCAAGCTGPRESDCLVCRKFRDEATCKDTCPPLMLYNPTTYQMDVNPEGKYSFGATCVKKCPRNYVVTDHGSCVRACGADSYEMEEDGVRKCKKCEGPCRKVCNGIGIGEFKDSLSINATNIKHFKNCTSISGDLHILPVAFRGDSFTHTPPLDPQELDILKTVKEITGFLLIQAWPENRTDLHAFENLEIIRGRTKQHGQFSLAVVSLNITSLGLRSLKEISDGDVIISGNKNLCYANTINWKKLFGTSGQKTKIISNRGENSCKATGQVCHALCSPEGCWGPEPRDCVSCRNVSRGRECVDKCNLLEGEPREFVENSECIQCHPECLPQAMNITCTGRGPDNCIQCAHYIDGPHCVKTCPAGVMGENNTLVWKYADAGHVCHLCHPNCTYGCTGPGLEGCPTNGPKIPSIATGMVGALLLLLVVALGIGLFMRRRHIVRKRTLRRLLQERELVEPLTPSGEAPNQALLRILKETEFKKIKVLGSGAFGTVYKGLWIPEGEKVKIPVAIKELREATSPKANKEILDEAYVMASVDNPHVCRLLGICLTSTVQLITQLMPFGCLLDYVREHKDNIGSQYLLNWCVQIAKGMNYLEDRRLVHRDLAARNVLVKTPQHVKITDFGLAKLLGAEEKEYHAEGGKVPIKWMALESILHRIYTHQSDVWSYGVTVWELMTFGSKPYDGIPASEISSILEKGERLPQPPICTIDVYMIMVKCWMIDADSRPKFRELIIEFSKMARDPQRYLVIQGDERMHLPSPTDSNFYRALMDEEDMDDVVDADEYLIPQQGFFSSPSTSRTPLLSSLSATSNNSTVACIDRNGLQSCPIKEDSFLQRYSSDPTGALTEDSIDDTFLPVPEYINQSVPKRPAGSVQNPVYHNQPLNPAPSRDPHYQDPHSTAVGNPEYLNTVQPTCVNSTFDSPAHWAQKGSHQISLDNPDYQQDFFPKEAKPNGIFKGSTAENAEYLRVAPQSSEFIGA

IC50 [µM] | SMILES
1 to 10 | Nc1ncc(-c2cccc(CNC(=O)c3cccs3)c2)nc1C(=O)N[C@H]1CCCNC1
1 to 10 | Nc1ncc(-c2cccc(NC(=O)c3cnc4ccccc4c3)c2)nc1C(=O)N[C@H]1CCCNC1
≥ 10 | COc1ccc(CNC(=O)c2cccc(-c3cnc(N)c(C(=O)N[C@H]4CCCNC4)n3)c2)cc1
≥ 10 | Nc1ncc(-c2cccc(C(=O)NCc3ccc(Cl)cc3)c2)nc1C(=O)N[C@H]1CCCNC1
≥ 10 | Nc1ncc(-c2cccc(C(=O)NCc3ccc(Cl)cc3F)c2)nc1C(=O)N[C@H]1CCCNC1
1 to 10 | CCNCCOc1cccc(-c2cnc(N)c(C(=O)N[C@H]3CCCNC3)n2)c1
≥ 10 | Nc1ncc(-c2cccc(CNC(=O)Nc3ccc(-c4ccccc4)cc3)c2)nc1C(=O)N[C@H]1CCCNC1
≥ 10 | Nc1ncc(-c2cccc(C(=O)NCc3ccc(OC(F)(F)F)cc3)c2)nc1C(=O)N[C@H]1CCCNC1
1 to 10 | Nc1ncc(-c2cccc(CN[C@@H]3c4ccccc4C[C@@H]3O)c2)nc1C(=O)N[C@H]1CCCNC1
0.05 to 1 | Nc1ncc(-c2cccc(NC(=O)Cc3ccc(F)cc3F)c2)nc1C(=O)N[C@H]1CCCNC1
≥ 10 | Cc1ccc(CNC(=O)c2cccc(-c3cnc(N)c(C(=O)N[C@H]4CCCNC4)n3)c2)c(F)c1F
≥ 10 | CN(C)c1ccc(CNC(=O)c2cccc(-c3cnc(N)c(C(=O)N[C@H]4CCCNC4)n3)c2)cc1
1 to 10 | Nc1ncc(-c2cccc(CNC(=O)c3ccc(F)cc3)c2)nc1C(=O)N[C@H]1CCCNC1
